# Assay results taken from US12440471B2, “Compositions and methods for the treatment of bronchopulmonary dysplasia (BPD) and BPD-associated pulmonary hypertension” (AyuVis Research, Inc., priority 2021, dated 2025).
# What was measured:
# [1] = tested on: human cord blood monocytes (CBMC); assay: Cytokines in human cord blood monocytes (CBMC); assay type: cell-based
# Description: IL-12p40, is a marker for the innate immune response to infection and is down regulated in CBMC.
# [2] = tested on: pre-term lamb BPD model; assay: Pre-term lamb BPD model: plasma cytokines; assay type: in vivo
# [3] = tested on: hPBMC; assay: Macrophage populations in hPBMC by FACS; assay type: cell-based, human; conditions: 72 h
# Method: Briefly, hPBMC were plated in a 96 well plate and treated with AVR 48 for 72 hrs. The cells were washed and stained for CD32, CD14, CD16, HLADR, CD86, CD206 anti-human antibodies and were analyzed by FACS. Dead cells were excluded by live/dead staining (7AAD) during analysis. The % of intermediate macrophages of the parent cells are determined as the macrophages stained positive for both HLADR and CD206 surface markers. The bar graph representing percentage of intermediate macrophages (Mint) of the parent macrophage populations (CD14+CD16+) after treatment with AVR-48. n=2 technical replicates and the experiment is repeated 3 times. AVR-48 binds to both toll-like receptor 4 (TLR4) and CD163 receptor on monocytes. In hPBMC, AVR-48 treatment for 72 h increased the percentage of intermediate macrophages and decreased M1 macrophages.
# [4] = tested on: hyperoxia-exposed BPD mouse model; assay: BPD mouse model: bronchoalveolar lavage fluid (BALF) analysis; assay type: in vivo; conditions: vs BPD group
# Description: For the hyperoxia experiment, newborn pups were exposed to 100% hyperoxia (P0), along with their mothers, in cages in an airtight Plexiglas chamber (OxyCycler; Biospherix, Redfield, NY, USA) as described previously by the present inventors (Syed, Das et al., 2017, Leary, Das et al. 2019, Das, Acharya et al. 2020, relevant portions incorporated herein) for 4 consecutive days (till P4) and removed to RA on P5 to be recovered till P14, so as to emulate the human BPD condition. All pups were sacrificed on P14 for further experimental analyses. The pups without any hyperoxia exposure served as the corresponding RA (normoxia) controls.
# Bronchoalveolar lavage fluid (BALF) Analysis. Pups were sacrificed on PN14, and the trachea was cannulated with a small-caliber needle by instilling PBS endotracheally at […] pressure for 15 minutes. Two volumes of 300 μL of cold 1×PBS were instilled, gently aspirated, and pooled. Samples were centrifuged at 1000×g for 10 minutes at 4° C. The supernatant was collected, and total protein was quantified using the Pierce™ BCA Protein Assay Kit (Fisher Scientific Co, Houston, TX). The total cell count was done using the TC20 cell counter (BioRad, Hercules, CA). Similar method was followed for analyzing the protein concentration in BAL fluid collected from preterm lambs.
# [5] = tested on: hyperoxia-exposed BPD mouse model; assay: BPD mouse model: BPD-PH, RV hypertrophy ratios; assay type: in vivo
# Description: AVR-48 protects the lungs from progressing towards BPD-PH. BPD-PH is characterized by abnormal vascular remodeling and rarefication of the pulmonary vasculature leading to vascular growth arrest which eventually leads to increased pulmonary vascular resistance and right heart failure (Hansmann, Sallmon et al. 2021). A similar effect is also seen in mouse models of experimental BPD, as reported by the present inventors, previously (Sun, Choo-Wing et al. 2013, Sureshbabu, Syed et al. 2016, Syed, Das et al. 2017, Leary, Das et al. 2019). There is hypertrophy of the right ventricle (RV) with an increase in the thickness of interventricular septum (IVS). […] There was no change in the ratio in the RA group treated with the drug, which was similar to RA control group (FIG. 8A).
# Morphometry and quantification. To study chord length, septal thickness and radial alveolar count in the lungs, RV, LV and IVS thickness, 5 μm-thick left-lobe lung and heart paraffin-embedded sections were stained with H&E. Multiple randomly chosen areas (at least 10 areas) from each section were photographed using 100× total magnification. Sections with large airways or blood vessels from the lung were excluded for lung morphometry while quantitative measurements of PH-induced RV hypertrophy ratios (RV/LV and RV/LV+IVS) were done using the methodology described previously (Sun, Choo-Wing et al. 2013). The lung morphometry parameters were measured as described (Bhandari, Choo-Wing et al. 2008, Leary, Das et al. 2019, Das, Acharya et al. 2020, Das, Curstedt et al. 2020) either using ImageJ (a free software of NIH) or CellSens software (version 7, Olympus).
# [6] = Oral PK of nanomilled formulations in adult SD rats; assay type: in vivo, rat; conditions: oral formulation, 100 mg/kg
# Method: The test item, the stabilizer (HPC-SSL) and the surfactant (SDS) were accurately weighed and transferred in a 15-mL amber glass jar charged with 6 mL of yttrium-stabilized zirconia beads (0.8 mm). The suspension was brought to final weight with water in order to achieve the desired final concentration. The formulation was mixed using a vortex for at least 1 minute and then homogenized using a roller mill (Unitized Jar Mill, Model 755 RMV from U.S. Stoneware (purchased from Fisher Scientific Canada cat #08-381-1) at 50 rpm for 48 hours.
# For the animal study, the suspensions prepared at 50 mg/mL were diluted to 10 mg/mL using a blank vehicle prepared using the same proportions of excipients as those indicated in Table I. By diluting the concentrated suspension of AVR-84 a clear solution was obtained whereas for AVR-48 the solution was a homogeneous cloudy solution.
# Animals and dosing: The male SD rats (N=3) were obtained from Charles River. Each animal was weighed before the administration of the test item. […] At the specified time points, t=15′, 30′, 1 h, 2 h, 3 h, 4 h, 6 h, 8 h and 24 h (N=3), blood (100 μL) was collected via the saphenous vein using MINIVETTE® POCT K3-EDTA. The blood samples were centrifuged for 10 min at 965 g and 4° C. within 30 min of collection, to obtain plasma. Plasma samples were kept frozen at −80° C. The plasma samples were thawed on ice and kept on ice during the sample preparation. Thirty μL of plasma samples were mixed with 75 μL of precipitation solution (80% acetonitrile and 20% methanol containing IS) was added. Samples were mixed and centrifuged at 3500 rpm for 10 min at 4° C. Forty μL of the supernatant was transferred to a 96 well plate, and 80 μL of water+0.1% formic acid was added and analyzed using the in house developed HPLC method.
smiles,measurement,setting,value
CC(=O)N[C@@H]1C(Oc2ccc([N+](=O)[O-])cc2)OC(CO)C(O)C1O (stereo partly drawn) [AVR-48],IL-10 increase,"[1]; AVR-48 alone, 0.1-10 μM",~2.5 fold
same,IL-1β,"[1]; LPS+AVR-48, 10 μM",decreased
same,IL-10,"[1]; LPS+AVR-48, 10 μM",decreased
same,IL-12p40 response,"[1]; compound alone (10 μM) or with LPS, compared with only LPS",higher IL-12p40 response than only LPS
same,TNF-α levels,"[1]; human CBMC, LPS",decreased
same,IL-10 concentration in plasma,"[2]; early time points (1-4 days), 2/d for 7 days, vs vehicle",significantly decreased
same,IL-6 concentration in plasma,[2]; vs vehicle treated lambs after 10 days,significantly decreased
same,M1 macrophages,[3],decreased
same,percentage of intermediate macrophages,[3],increased
same,total protein content in BALF,[4]; 10 mg/kg IP,decreased
same,total inflammatory cells in BALF,[4]; 10 mg/kg,significantly decreased
same,Fulton's Index (RV/LV+IVS),[5]; BPD group after treatment,decreased significantly
same,RV/left ventricle (LV) ratio,[5]; BPD group after treatment,decreased significantly
same,RV/LV ratio and Fulton's Index in room air animals,[5]; RA group treated with the drug vs RA control,no change
same,Cmax,"[6]; male, SD (Sprague-Dawley), rat, plasma, adult rats n=3 (repeat of figure legend), read-out: Cmax",3.64 ± 0.66 µM
same,Tmax,"[6]; male, SD (Sprague-Dawley), rat, plasma, adult rats n=3, read-out: Tmax",42 ± 18 min
same,half-life,"[6]; male, SD (Sprague-Dawley), rat, plasma, adult rats n=3, read-out: half-life (T v2) (converted)",36 ± 24 min
same,plasma concentration profile,[6],linear decline in drug concentration
